From US20080254017A1, “Methods and compositions for treating symptomes of diseases related to imbalance of essential fatty acids” (priority 2006, published 2008)
Like-named read-outs stand apart in the source and are kept apart here.

Experiments:
[1] = L-Glutathione capsules, stomach acid; cited from earlier work
[2] = IV bolus doses of 7 grams, 14 grams and 21 grams; cited from earlier work
[3] = cited from earlier work
[4] = test system: subjects with autistic spectrum disorder; format: in vivo
From the text: The systemic nature of Autistic Spectrum Disorder (ASD) and the pervasive developmental delay (PDD) that may accompany it has led the inventor of the invention to view the complexity of these presentations by addressing them from a cell membrane perspective. Autistic spectrum disorder is a complex neurodevelopmental disorder, which has been investigated under an open clinical study rather than randomized, placebo, controlled and double blinded studies due to the constellation of symptoms in autistic spectrum disorder and multiple variables in regard to the oral and IV intervention. Each subject served as his or her own control for several reasons, 1) control pediatric subjects are difficult to obtain due to the use of intravenous therapy, 2) compliance in regard to a restricted carbohydrate diet and oral intake of supplements is limited in controls, and 3) matching two subjects with the same diagnosis, gender, age, development, metabolism and presentation is unrealistic in regard to autism and PDD. Presently there are no biological markers that exist to identify autistic spectrum disorder in addition to speculation that multiple, variable susceptibility genes, epigenetic effects, and environmental factors complicate the disorder we term autism.
The case studies represented below present the result of the treatment regimen on 300 subjects studied. Phospholipid re-modeling of these subjects were stimulated by supplying oral or IV phospholipids, principally PC, as well as balanced essential fatty acids and catalysts via nutritional and phamaneutical interventions.
A butterfly catheter with a 23-gauge needle was inserted into a vein of the antecubital region of one of the subjects' arms. A syringe containing the PC (phosphatidylcholine) composition in about 5 to about 10 cc volume was connected to the catheter by a flexible tube. A volume of blood equal to the total volume of the PC composition was drawn into the syringe and the syringe was gently agitated to mix the blood and PC composition. The blood/PC composition mixture was then infused (or “pushed”) as a lipid exchange into the subject over a period of two to three minutes.
A butterfly catheter with a 23-gauge needle was inserted into a vein of the antecubital region of one of the subjects' arms. The PC composition was infused first followed by a pre-prepared syringe containing about 2 mg (0.2 cc) to about 5 mg (0.5 cc) of Leucovorin over the period of 2-3 minutes.
A butterfly catheter with a 23-gauge needle was inserted into a vein of the antecubital region of one of the subjects' arms. The PC and Leucovorin compositions were infused first followed by a pre-prepared syringe containing about 1.5 to 6 cc of glutathione generally pre-mixed with an equal portion of sterile water (not saline). The composition containing glutathione was followed the IV PC with a pre-prepared syringe of glutathione using the same needle. This procedure avoids re-sticking the patient by infusing first the PC, then the Leucovorin and then the glutathione using the same butterfly catheter with a flexible tube infused (or “pushed”) into the subject over a period of two to five minutes.

[5] = test system: mouse model of Bulbar ALS; conditions: oral administration; cited from earlier work

## N[C@@H](CCC(=O)N[C@@H](CS)C(=O)NCC(=O)O)C(=O)O [Glutathione, N—(N-L-gamma-glutamyl-L-cysteinyl) glycine]
[1]
  stability when taken orally: very unstable and is destroyed by the stomach acid before it can be absorbed

## Phosphatidylcholine
[2]
  side effects: no side effects were observed
[3]; taken orally with meals
  oral absorption: up to 90 % per 24 hrs
[3]; taken orally
  time over which blood levels peak: 8 to 12 h
[4]; Case Study Five, 2 grams then 3 grams on consecutive weeks dripped over 3 hours
  clinical response: increased awareness/communication
[4]; Case Study Seven, IV 500 mg two to three times weekly, after 6 weeks
  clinical response: dramatic improvement in response to others and the world around them
[4]; Case Study Seven, IV lipid exchange 250 mg followed by 0.3 cc leucovorin and 1200 mg GSH, once weekly
  clinical response: positive responsive
[4]; Case Study Seven, bolus dosing
  clinical response: increased language and awareness
[4]; Case Study Six, IV 500 mg twice weekly, after 6 weeks
  clinical response: improvement in fatigue, stable mood, return of focus, improvement in memory, clearance of orange color on palms/soles, less headaches, improved learning
[4]; Case Study Six, IV lipid exchange 250 mg once weekly with supplementation and diet
  clinical response: responsive
[4]; Case Study Six, bolus 1.5 grams in D5W dripped over 2 hours followed by glutathione
  clinical response: improved cognition, increased circulation, improved eye contact and more demonstrative, loving behavior
[4]; Case Study Six, bolus 3 grams dripped over 4 hours
  tolerability: well tolerated

## O=C(O)[C@@H](S)[C@@H](S)C(=O)O [DMSA, meso-2,3-dimercaptosuccinic acid]
[4]; Case Study Seven, 13 months of oral dosing by another physician
  adverse outcome: increased left side weakness

## CCCC(=O)[O-].[Na+] [sodium butyrate]
[5]
  acetylation of nuclear histone in neural tissues: increased acetylation of nuclear histone in neural tissues
  neurological phenotypes: successfully ameliorated neurological phenotypes
